Measured values published in patent publication US20260069599A1, “INHIBITORS OF BROMODOMAIN-CONTAINING PROTEIN 4 AND PHOSPHOINOSITIDE 3-KINASE” (Board of Regents of the University of Nebraska, priority 2022, published 2026).

Assays:
[1] = biological target: T1, BRD4-BD2 (Homo sapiens, UniProt O60885); assay: Protein Thermal Shift (PTS) assay on BRD4-BD2; assay type: binding; set-up: polyhistidine (N, cleaved yes); made in house; host or cells: E. coli (T7 express); settings: 100 μM ligand, 20 μM BD protein; thermal destabilization
Method: The genes encoding human BRD2-BD1, BRD2-BD2, and BRD4-BD2 were codon-optimized for expression in E. coli. […] The sequence-confirmed plasmids were used to transform T7 express E coli. Large-scale cell cultures were grown in LB media containing […] carbenicillin and incubated with shaking at 37° C. until the OD600 nm reached 0.6. Then cultures were cooled to 16° C., and 1 mM isopropyl β-D-1-thiogalactopyranoside was added to induce the protein expression. After 20 hours of incubation, cells were harvested. The resulting cell pellet was resuspended in a lysis buffer containing 50 mM Tris pH 7.5, 200 mM NaCl, 0.5 mM imidazole, and 0.3 mM tris(2-carboxyethyl) phosphine (TECP). After the addition of DNase I and lysozyme, the cell suspension was incubated on ice for 30 minutes and lysed by sonication. The lysate was clarified by centrifugation at 12,000 rpm for 45 minutes. The resulting supernatant was applied to a 5 mL metal affinity cobalt column pre-equilibrated with lysis buffer. Then, 25 column volumes of lysis buffer were passed through the column to eliminate unbound E coli proteins. Recombinant protein was eluted isocratically with the elution buffer containing 50 mM Tris pH 7.5, 200 mM NaCl, 150 mM imidazole, and 0.3 mM TECP. The rhinovirus 3C protease was added to the eluted recombinant protein to cleave the N-terminal Histidine tag and the sample dialyzed against a buffer containing 50 mM Tris pH 7.5, 100 mM NaCl and 0.3 mM TECP. After 12 hours, the protein solution was passed through a 5 ml cobalt column, which was pre-equilibrated with dialysis buffer, and the recombinant protein lacking the His-tag was collected from the flowthrough.
Each reaction used 20 μM concentration of recombinant BD protein in a 50 mM Tris pH 7.5 buffer containing 100 mM NaCl, 0.3 mM tris(2-carboxyethyl) phosphine HCl, and 1% dimethyl sulfoxide. Protein Thermal Shift Dye (ThermoFisher) was also added at 1× concentration. Under these conditions, 3 protein melting curves with each respective BD and 100 μM final concentration of ligand were performed from 25 to 95° C. with a ramp rate of 0.5° C./minute. Evaluation of the derivative of the fluorescence signal employed the Applied Bioscience Protein Thermal Shift Software version 1.3 to determine the average melting temperature (Tm) for each sample and the standard deviation(s) of those Tm values.

[2] = biological target: T2, BRD4-BD1 (Homo sapiens, UniProt O60885); settings: relative to SF2523; cited from earlier work
T2 construct: tested against BRD4-BD1 and BRD4-BD2 using a peptide-displacement assay

[3] = biological target: T1, BRD4-BD2; set-up: tested against BRD4-BD1 and BRD4-BD2 using a peptide-displacement assay; settings: relative to SF2523; cited from earlier work

| Structure (SMILES) | BRD4-BD2 Tm decrease [1] [°C] | better binding affinity than SF2523 for BRD4-BD1 [2] [fold] | better binding affinity than SF2523 for BRD4-BD2 [3] [fold] |
| --- | --- | --- | --- |
| O=c1c(N2CCOCC2)nc(Br)c2n1CCc1ccccc1-2 [MDP3, 1-bromo-3-morpholino-6,7-dihydro-4H-pyrazino [2,1-a]isoquinolin-4-one] | 1.3 |  |  |
| O=c1cc(N2CCOCC2)oc2c(Br)cccc12 [MDP4, 8-bromo-2-morpholino-4H-chromen-4-one] | 0.6 |  |  |
| O=C(NCc1cccnc1)c1cc(-c2csc3c(=O)cc(N4CCOCC4)oc23)cc2c1OCCO2 [SRX3212] |  | 65 | 48 |
